Data on 22 molecules can be found in patent US20070179060A1, “6-(Poly-substituted aryl)-4-aminopicolinates and their use as herbicides” (priority 2006, published 2007).

What all share (experiment): Postemergence herbicidal activity
Holding throughout (type): in vivo

In experiment [1] the test system is lambsquarter (Chenopodium album). Conditions: post-emergent, after 14 days; for % Control CHEAL / pest or weed control at 140 g/ha: 140 g ai/ha. How it is done:
(§1) Seeds or nutlets of the desired test plant species were planted in Sun Gro MetroMix® 306 planting mixture, which typically has a pH of 6.0 to 6.8 and an organic matter content of about 30 percent, in plastic pots with a surface area of 64 square centimeters. When required to ensure good germination and healthy plants, a fungicide treatment and/or other chemical or physical treatment was applied. The plants were grown for 7-21 days in a greenhouse with an approximate 15 hour photoperiod which was maintained at about 23-29° C. during the day and 22-28° C. during the night. Nutrients and water were added on a regular basis and supplemental lighting was provided with overhead metal halide 1000-Watt lamps as necessary. The plants were employed for testing when they reached the first or second true leaf stage. […] The concentrated stock solutions obtained were diluted with 20 mL of an aqueous mixture containing acetone, water, isopropyl alcohol, DMSO, Atplus 411F crop oil concentrate, and Triton® X-155 surfactant in a 48.5:39:10:1.5:1.0:0.02 v/v ratio to obtain spray solutions containing the highest application rates. […] Compound requirements are based upon a 12 mL application volume at a rate of 187 L/ha. Formulated compounds were applied to the plant material with an overhead Mandel track sprayer equipped with a […] nozzles calibrated to deliver 187 L/ha over an application area of 0.503 square meters at a spray height of 18 inches (43 cm) above the average plant canopy height. Control plants were sprayed in the same manner with the solvent blank. The treated plants and control plants were placed in a greenhouse as described above and watered by sub-irrigation to prevent wash-off of the test compounds. […] By applying the well-accepted probit analysis as described by J. Berkson in Journal of the American Statistical […], 48, 565 (1953) and by D.

The subject of experiment [2] is redroot pigweed (Amaranthus retroflexus). The settings on record: post-emergent, after 14 days; for % Control AMARE / pest or weed control at 140 g/ha: 140 g ai/ha. As for the experimental part: as §1
Experiment [3] relates to velvetleaf (Abutilon theophrasti). The settings on record: post-emergent, after 14 days; for % Control ABUTH / pest or weed control at 140 g/ha: 140 g ai/ha. How it is done: as §1
Where [4] appears, read: Chenopodium album, post-emergence, 336 h, read-out: % Control CHEAL.
Setting [5] is: Amaranthus retroflexus, post-emergence, 336 h, read-out: % Control AMARE.
[6] abbreviates: Abutilon theophrasti, post-emergence, 336 h, read-out: % Control ABUTH.

For “4-Amino-3-chloro-(2-chloro-4-difluoromethyl-6-fluoro-3-methoxy-phenyl)pyridine-2-carboxylic acid, methyl ester [Compound 53]”, in experiment [1], the “% Control CHEAL” value was found to be 95%. Further, in experiment [2], the “% Control AMARE” value is listed as 80%. Moreover, in experiment [3], the “% Control ABUTH” value was 70%.
On to `COC(=O)c1nc(-c2ccc(C#N)c(OC)c2F)cc(N)c1Cl` [Compound 6, 4-Amino-3-chloro-6-(4-cyano-2-fluoro-3-methoxyphenyl)pyridine-2-carboxylic acid methyl ester], for which the pest or weed control at 140 g/ha in experiment [1] (setting [4]) is 95%; in experiment [2] (setting [5]), 100%; in experiment [3] (setting [6]), 90%.
For `COC(=O)c1nc(-c2ccc(Cl)c(C(C)(C)F)c2F)cc(N)c1Cl` [Compound 25, 4-Amino-3-chloro-6-[4-chloro-2-fluoro-3-(1-fluoro-1-methylethyl)phenyl]-pyridine-2-carboxlic acid, methyl ester], the “% Control CHEAL” value in experiment [1] turned out to be 100%. For the same molecule, the “% Control AMARE” value in experiment [2] was 100%. Moreover, the “% Control ABUTH” value in experiment [3] was 100%.
Consider `COC(=O)c1nc(-c2ccc(F)c(OC)c2F)cc(NC(C)=O)c1Cl` [Compound 28, 4-Acetylamino-3-chloro-(2,4-difluoro-3-methoxyphenyl)pyridine-2-carboxylic acid, methyl ester], for which the “% Control CHEAL” value in experiment [1] is listed as 95%. Further, the “% Control AMARE” value in experiment [2] is 100%. For the same molecule, the “% Control ABUTH” value in experiment [3] was 100%.
As to `COC(=O)c1nc(-c2ccc(F)c(OC)c2Cl)cc(NC(C)=O)c1Cl` [Compound 29, 4-Acetylamino-3-chloro-(2-chloro-4-fluoro-3-methoxyphenyl)pyridine-2-carboxylic acid, methyl ester], the “% Control CHEAL” value in experiment [1] turned out to be 98%. In experiment [2], the “% Control AMARE” value is listed as 40%. Moreover, the “% Control ABUTH” value in experiment [3] worked out at 95%.
`CCC(F)c1c(Cl)ccc(-c2cc(NC(C)=O)c(Cl)c(C(=O)OC)n2)c1F` (stereo not drawn) [Compound 32, 4-Acetylamino-3-chloro-6-[4-chloro-2-fluoro-3-(1-fluoropropyl)-phenyl]pyridine-2-carboxylic acid, methyl ester]: the pest or weed control at 140 g/ha in experiment [1] (setting [4]) was 50%; in experiment [2] (setting [5]), 80%; in experiment [3] (setting [6]), 60%.
For `COC(=O)c1nc(-c2ccc(Cl)c(N(C)C)c2Cl)cc(N)c1Cl` [Compound 37, 4-Amino-3-chloro-6-[2,4-dichloro-3-(dimethylamino)phenyl]pyridine-2-carboxylic acid, methyl ester] the same measures were 100%, 100% and 100%.
For the molecule `COC(=O)c1nc(-c2ccc(Cl)c(C(=O)OC)c2F)cc(N)c1Cl` [Compound 39, 4-Amino-3-chloro-6-[4-chloro-2-fluoro-3-(methoxycarbonyl)phenyl]pyridine-2-carboxyic acid, methyl ester], in experiment [1], the “% Control CHEAL” value was 95%. In addition, the “% Control AMARE” value in experiment [2] worked out at 75%. In experiment [3], the “% Control ABUTH” value worked out at 90%.
For `COC(=O)c1nc(-c2ccc(Cl)c(C)c2Cl)cc(N)c1Cl` [Compound 48, 4-Amino-3-chloro-6-(2,4-dichloro-3-methylphenyl)pyridine-2-carboxylic acid methyl ester], the pest or weed control at 101 g/ha turned out to be 85% in experiment [1] (Chenopodium album, post-emergence, 336 h, 101 g ai/ha, read-out: % Control CHEAL); 80% in experiment [2] (Amaranthus retroflexus, post-emergence, 336 h, 101 g ai/ha, read-out: % Control AMARE); 98% in experiment [3] (Abutilon theophrasti, post-emergence, 336 h, 101 g ai/ha, read-out: % Control ABUTH).
For `COC(=O)c1nc(-c2c(F)cc(Cl)c(C(F)F)c2F)cc(N)c1Cl` [Compound 54, 4-Amino-3-chloro-6-(4-chloro-3-difluoromethyl-2,6-difluorophenyl)pyridine-2-carboxylic acid, methyl ester], the pest or weed control at 140 g/ha in experiment [1] (setting [4]), in experiment [2] (setting [5]) and in experiment [3] (setting [6]) was 100% each time.
Take `COC(=O)c1nc(-c2c(F)cc(F)c(OC)c2Cl)cc(N)c1Cl` [Compound 55, 4-Amino-3-chloro-(2-chloro-4,6-difluoro-3-methoxyphenyl)pyridine-2-carboxylic acid, methyl ester]: in experiment [1], the “% Control CHEAL” value stood at 90%. Further, the “% Control AMARE” value in experiment [2] turned out to be 100%. Moreover, in experiment [3], the “% Control ABUTH” value is reported as 100%.
Turning to `COC(=O)c1nc(-c2c(F)cc(Cl)c(OC)c2Cl)cc(N)c1Cl` [Compound 57, 4-Amino-3-chloro-6-(2,4-dichloro-6-fluoro-3-methoxyphenyl)pyridine-2-carboxylic acid, methyl ester], the pest or weed control at 140 g/ha in experiment [1] (setting [4]), in experiment [2] (setting [5]) and in experiment [3] (setting [6]) was 100% in each case.
Take `CCCCOc1c(Cl)ccc(-c2cc(N)c(Cl)c(C(=O)OC)n2)c1F` [Compound 60, 4-Amino-3-chloro-6-(4-chloro-3-butoxy-2-fluorophenyl)pyridine-2-carboxylic acid, methyl ester]: the values for the pest or weed control at 140 g/ha in experiment [1] (setting [4]), in experiment [2] (setting [5]) and in experiment [3] (setting [6]) were 90%, 90% and 55%, respectively.
Regarding `CCC(F)c1c(Cl)ccc(-c2cc(N)c(Cl)c(C(=O)OC)n2)c1F` (stereo not drawn) [Compound 66, 4-Amino-3-chloro-6-[4-chloro-2-fluoro-3-(1-fluoropropyl)phenyl]pyridine-2-carboxylic acid, methyl ester], the “% Control CHEAL” value in experiment [1] is 95%. Also, in experiment [2], the “% Control AMARE” value was found to be 100%. In addition, in experiment [3], the “% Control ABUTH” value turned out to be 90%.
With `COC(=O)c1nc(-c2ccc(CF)c(OC)c2F)cc(N)c1Cl` [Compound 72, 4-Amino-3-chloro-6-(2-fluoro-4-fluoromethyl-3-methoxyphenyl)pyridine-2-carboxylic acid, methyl ester], the pest or weed control at 140 g/ha in experiment [1] (setting [4]) was 80%; in experiment [2] (setting [5]), 20%; in experiment [3] (setting [6]) it was 100%.
For `COC(=O)c1nc(-c2c(F)cc(Cl)c(C)c2F)cc(N)c1Cl` [Compound 75, 4-Amino-3-chloro-6-(4-chloro-2,6-difluoro-3-methylphenyl)pyridine-2-carboxylic acid, methyl ester], the pest or weed control at 140 g/ha came to 95% in experiment [1] (setting [4]), 95% in experiment [2] (setting [5]) and 100% in experiment [3] (setting [6]).
As to `COC(=O)c1nc(-c2ccc(Cl)c(OC)c2Br)cc(N)c1Cl` [Compound 76, 4-Amino-6-(2-bromo-4-chloro-3-methoxyphenyl)-3-chloropyridine-2-carboxylic acid, methyl ester], the pest or weed control at 140 g/ha in experiment [1] (setting [4]), in experiment [2] (setting [5]) and in experiment [3] (setting [6]) was 100% each time.
Consider `COC(=O)c1nc(-c2c(F)cc(F)c(C(F)F)c2F)cc(N)c1Cl` [Compound 78, 4-Amino-3-chloro-6-(3-difluoromethyl-2,4,6-trifluorophenyl)pyridine-2-carboxylic acid, methyl ester], for which the pest or weed control at 140 g/ha came to 100% in experiment [1] (setting [4]), 100% in experiment [2] (setting [5]) and 90% in experiment [3] (setting [6]).
Regarding `COC(=O)c1nc(-c2ccc(Cl)c([S+](C)[O-])c2F)cc(N)c1Cl` (stereo not drawn) [Compound 83, 4-amino-3-chloro-6-(4-chloro-2-fluoro-3-methanesulfinyl-phenyl)pyridine-2-carboxylic acid methyl ester], the values for the pest or weed control at 140 g/ha in experiment [1] (setting [4]), in experiment [2] (setting [5]) and in experiment [3] (setting [6]) were 85%, 85% and 90%, respectively.
In the case of `COC(=O)c1nc(-c2ccc(Cl)c(S(C)(=O)=O)c2F)cc(N)c1Cl` [Compound 84, 4-amino-3-chloro-6-(4-chloro-2-fluoro-3-methanesulfonylphenyl)pyridine-2-carboxylic acid methyl ester], the pest or weed control at 140 g/ha was found to be 70% in experiment [1] (setting [4]), 75% in experiment [2] (setting [5]) and 80% in experiment [3] (setting [6]).
Regarding `Cc1c(F)ccc(-c2cc(N)c(Cl)c(C(=O)O)n2)c1F` [Compound 97, 4-Amino-3-chloro-(2,4-difluoro-3-methylphenyl)pyridine-2-carboxylic acid], in experiment [1], the “% Control CHEAL” value turned out to be 80%. Moreover, in experiment [2], the “% Control AMARE” value is listed as 85%. Moreover, the “% Control ABUTH” value in experiment [3] is 65%.
Turning to `Nc1cc(-c2ccc(Cl)c(CF)c2F)nc(C(=O)O)c1Cl` [Compound 114, 4-Amino-3-chloro-6-(4-chloro-2-fluoro-3-fluoromethylphenyl)pyridine-2-carboxylic acid], the pest or weed control at 140 g/ha was found to be 95% in experiment [1] (setting [4]), 85% in experiment [2] (setting [5]) and 95% in experiment [3] (setting [6]).
